# Results as given in patent US20040132079A1, “Assays relating to Toll-like receptor activity” (3M Innovative Properties Company, priority 2002, published 2004).
# Biological target: T1, human TLR6 (Homo sapiens, UniProt Q9Y2C9)
# T1 construct: expressed in transfected cells; host or cells: Namalwa cells (ATCC CRL-1432), co-transfected with pIFN-α1-luc and pCI-TLR6, G418-selected
# T1 sequence (Q9Y2C9 32-796): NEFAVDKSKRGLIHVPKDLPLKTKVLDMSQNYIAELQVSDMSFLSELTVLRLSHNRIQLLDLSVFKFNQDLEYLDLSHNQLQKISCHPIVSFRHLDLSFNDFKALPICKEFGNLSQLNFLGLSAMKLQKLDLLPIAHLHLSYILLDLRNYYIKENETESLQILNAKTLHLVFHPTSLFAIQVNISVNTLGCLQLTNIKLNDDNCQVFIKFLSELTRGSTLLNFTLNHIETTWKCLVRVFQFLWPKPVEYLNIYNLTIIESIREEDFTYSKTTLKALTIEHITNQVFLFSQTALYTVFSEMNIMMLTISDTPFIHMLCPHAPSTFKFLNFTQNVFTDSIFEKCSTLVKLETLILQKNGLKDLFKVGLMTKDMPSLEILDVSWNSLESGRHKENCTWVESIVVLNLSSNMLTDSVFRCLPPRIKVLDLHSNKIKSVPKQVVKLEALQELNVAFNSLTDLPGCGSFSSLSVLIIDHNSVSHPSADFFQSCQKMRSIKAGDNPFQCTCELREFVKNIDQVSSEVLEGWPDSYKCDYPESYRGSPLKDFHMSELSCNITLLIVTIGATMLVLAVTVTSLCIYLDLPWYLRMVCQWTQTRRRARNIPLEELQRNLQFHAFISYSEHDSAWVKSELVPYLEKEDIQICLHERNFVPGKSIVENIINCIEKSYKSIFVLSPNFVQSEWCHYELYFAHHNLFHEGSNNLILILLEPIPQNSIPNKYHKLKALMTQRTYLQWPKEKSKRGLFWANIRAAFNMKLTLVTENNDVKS
# Test: Luciferase induction off of the IFN-α1 promoter in pIFN-α1-luc/pCI-TLR6 co-transfected Namalwa cells
# Assay type: cell-based
# Details: IRM compound 10 μM, 18 hours, compared to DMSO negative control, representative experiment
# Text: The vector pIFN-α1-luc was constructed by inserting BglII sites at both ends of the human IFN-α1 promoter (SEQ ID NO:21). The BglII sites were inserted into the IFN-α1 promoter and the sequence was amplified using the primer pair of SEQ ID NO:22 and SEQ ID NO:23. The amplified IFN-α1 promoter was cloned into the pGL3-Enhancing vector (Promega Corp., Madison, Wis.) at the BglII site.
# The vector pCI-TLR6 was constructed by inserting SEQ ID NO:11 (GenBank Accession No. NM 006068), which includes the human TLR6 coding sequence, into the pCI-neo mammalian expression vector (Promega Corp.) at the vector's NheI and MluI restriction sites.
# Burkitt's Lymphoma lymphoblastoid Namalwa cells (ATCC Accession No. CRL-1432) were grown by incubation in culture medium overnight. Cells were harvested by centrifugation in a tabletop centrifuge (1200 RPM for 5 minutes), and then resuspended in phosphate buffered sucrose to a concentration of 1.3×10^7 cells per milliliter.
# For each transfection, a 750 μL aliquot of the cell suspension was placed in an electroporation cuvette with 4 mm gaps. 10 μg of the pIFN-α1-luc vector and 10 μg of the pCI-TLR6 vector were added to the electroporation cuvette. The cell and vector mixtures were incubated at room temperature for 5 minutes. The cells were electroporated using a BioRad Gene Pulser (BioRad Laboratories, Hercules, Calif.) set to at 500 μF capacitance and […], then incubated at room temperature for 5 minutes.
# The electroporated cells were suspended in 10 mLs of culture medium and incubated overnight. Dead cells and debris were removed after 24 hours using a MACS Dead Cell Removal kit (Miltenyi Biotec, Auburn, Calif.). Cells were resuspended in 10 mLs of culture medium and incubated for an additional 24 hours.
# Transfected cells were selected by adding G418 (Promega Corp., Madison, Wis.) to a final concentration of 1 mg/mL and incubating the cells for seven days.
# The selected transfected cells were counted and resuspended to a concentration of 1×10^6 cell per mL in culture medium. 100 μl aliquots of cells were placed in the wells of a white-walled, white-bottomed 96-well plate (Corning, Inc. Corning, N.Y.). 1.0 μL of an IRM compound from Table 1 (prepared at 1 mM in 100% DMSO) was added to some cell aliquots so that the final concentration of IRM compound was 10 μM. As a positive control, some cell aliquots were incubated with Sendai virus instead of IRM compound. As a negative control, some cell aliquots were incubated with DMSO without IRM compound. In all cases, the cells were incubated for 18 hours.
# The plates were equilibrated to room temperature before 1 volume of reconstituted LucLight Plus (Packard Instruments, Meriden, Conn.) was added to each aliquot of cells. Each well of the plate was read on an LJL Analyst (LJL Biosystems, Inc., Sunnyvale, Calif.) set with a 5 minute dark adapt. The data are expressed as the fold increase in luciferase induction off of the IFN-α1 promoter in cell aliquots incubated with the indicated stimulant compared to the negative control in which the cell aliquots were incubated with only DMSO.
row,Fold Increase in Luciferase Induction,Structure (SMILES)
1,4.0 fold,"Nc1nc2ccccc2c2c1ncn2CCOCCCc1cccnc1 [IRM4, 1-{2-[3-(3-pyridyl)-propoxy]ethyl}-1H-imidazo[4,5-c]quinolin-4-amine]"
2,3.2 fold,"COCCc1nc2c(N)nc3ccccc3c2n1CCCCNC(=O)c1ccc(-n2cccc2)nc1 [IRM7, N^3-{4-[4-amino-2-(2-methoxyethyl)-1H-imidazo[4,5-c]quinolin-1-yl]butyl}-6-(1H-1-pyrrolyl)nicotinamide]"
3,2.3 fold,"CCc1nc2c(N)nc3ccccc3c2n1CCCCCS(C)(=O)=O [IRM8, 2-ethyl-1-[5-(methylsulfonyl)-pentyl]-1H-imidazo[4,5-c]quinolin-4-amine]"
4,3.6 fold,"CCOCc1nc2c(N)nc3c(c2n1CC(C)(C)O)CCCC3 [IRM1, 4-amino-2-ethoxymethyl-α,α-dimethyl-6,7,8,9-tetrahydro-1H-imidazo[4,5-c]quinoline-1-ethanol]"
5,3.2 fold,"CCCCc1nc2c(N)nc3cccnc3c2n1CC(C)C [IRM5, 2-butyl-1-(2-methylpropyl)-1H-imidazo[4,5-c][1,5]naphthyridin-4-amine]"
6,2.7 fold,"Cc1nc2c(N)nc3ccccc3c2n1CC(C)(C)O [IRM2, 4-amino-α,α,2-trimethyl-1H-imidazo[4,5-c]quinoline-1-ethanol]"
7,2.9 fold,"CCCCc1nc2c(N)nc3c(c2n1CC(C)C)NCCC3 [IRM6, 2-butyl-6,7,8,9-tetrahydro-1-(2-methylpropyl)-1H-imidazo[4,5-c][1,5]naphthyridin-4-amine]"
8,2.6 fold,"CCCCc1nc2c(N)nc3ccccc3c2n1CCCCNS(C)(=O)=O [IRM3, N-[4-(4-amino-2-butyl-1H-imidazo[4,5-c]quinolin-1-yl)butyl]methanesulfonamide]"
